# Several values for one entry are separate records, joined by “and”; a condition that tells them apart may be missing. Equal entries are not always repeated.
# Columns and labels:
# [1] = system: human peripheral blood lymphocytes (HPBL); experiment: In vitro chromosome aberration test; type: cell-based
# Method: Based on precipitates observed in the range-finding assay, concentrations used during the definitive chromosome aberration assay were a) 7.5, 15, 25, 50, 100, and 150 μg/mL in the 3-hour treatments with and without metabolic activation, and b) 1.0, 15, 25, 30, 35, 40, 45, 50, 55, 60, and 75 μg/mL in the 22-hour treatment without metabolic activation. These cultures along with the vehicle and one concentration of positive control for each treatment condition were analyzed for aberrations. Structural chromosome aberrations were scored for each concentration from a total of 200 metaphase cells (when possible) or ≥30 aberrant cells. Numerical aberrations were evaluated in 400 metaphase cells per concentration.
# [2] = Stability of oral dosing solution; type: physicochemical
# Source text: (§1) Most preferably, an oral dose of the composition is used. An oral dosing formulation was validated by a GLP study.
# [3] = system: rats trained to self-administer cocaine; settings: 10-40 mg/kg i.p., cited from earlier work
# [4] = Solubility; type: physicochemical
# Source text: 18-MC HCl can be supplied as a dry powder packaged in double plastic bags in an HDPE bottle with desiccant. The 18-MC HCl can be formulated at the clinical site into a solution for dosing patients. […] Based on the properties of the compound, it can also be formulated in a solid oral formulation (tablet, capsule, sachets, granules, etc.)
# as §1
# [5] = system: mouse liver; experiment: In vivo comet assay
# Method: The comet assay (alkaline single cell gel electrophoresis) is a microgel electrophoretic technique that detects DNA damage in individual cells. DNA damage can be expressed as DNA single strand breaks, double strand breaks, and strand breaks induced by alkali labile sites. […] For this study, the liver was selected as the tissue for evaluation, since this tissue is expected to contain high concentrations of parent drug and metabolites following oral administration.
# Male mice were administered oral doses of 0 (vehicle=5% dextrose), 50, 90 and 120 mg/kg/day by gavage according to the table below. Animals in groups 1-4 were dosed on three consecutive days and euthanized 3 to 4 hours after the last dose by CO2 inhalation. A separate group of animals were dosed with methyl methanesulfonate (MMS) which served as a positive control. Immediately following euthanasia, the liver was removed and collected from each animal.
# In this study, comet tail migration, % tail DNA (also known as % tail intensity) and tail moment were determined for each animal/treatment group and served as parameters of DNA damage.
# [6] = system: plasma protein; experiment: Plasma protein binding; type: in vitro ADME, Human
# Source text: (§2) There is no information on the protein binding of any of the metabolites.
# [7] = system: plasma protein; experiment: Plasma protein binding; type: in vitro ADME, Monkey
# Source text: as §2
# [8] = system: plasma protein; experiment: Plasma protein binding, all species tested; type: in vitro ADME
# Method: In all the species tested in pre-clinical studies, 18-MC is rapidly absorbed following oral administration with Tmax occurring in less than 0.5 hours following oral administration. After oral administration, the elimination of 18-MC is multi-compartmental. In plasma, 18-MC is highly protein bound (92% to 98%). 18-MC is also rapidly and extensively metabolized, presumably by first pass metabolism. At least […] different metabolites have been detected both in vitro and in vivo, further described below (M1-M9, P1-P3). The major metabolites (those with exposure greater than 10% of the total drug related material) appear to change with the dose and duration of dosing. Major metabolites include M2, M4, M5, M8, M9 and P2 depending on the animal species tested, and the dose and duration of dosing.
# as §2
# [9] = molecular target: CYP2C8 (Homo sapiens, UniProt P10632); settings: recombinant enzyme
# Sequence of CYP2C8 (P10632 whole entry): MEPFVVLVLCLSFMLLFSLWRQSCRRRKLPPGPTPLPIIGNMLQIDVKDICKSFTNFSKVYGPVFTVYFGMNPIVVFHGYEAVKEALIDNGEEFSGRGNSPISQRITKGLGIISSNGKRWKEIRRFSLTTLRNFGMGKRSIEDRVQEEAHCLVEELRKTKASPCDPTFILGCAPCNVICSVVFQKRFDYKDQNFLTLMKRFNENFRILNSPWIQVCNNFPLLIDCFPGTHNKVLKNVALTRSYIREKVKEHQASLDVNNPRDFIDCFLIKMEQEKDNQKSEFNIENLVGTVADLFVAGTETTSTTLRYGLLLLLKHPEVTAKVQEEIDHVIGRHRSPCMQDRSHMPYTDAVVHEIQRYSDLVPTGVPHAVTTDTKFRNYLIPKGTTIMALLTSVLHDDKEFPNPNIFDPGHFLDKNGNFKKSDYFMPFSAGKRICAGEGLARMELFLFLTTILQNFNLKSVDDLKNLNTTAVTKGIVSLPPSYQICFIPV
# Method: (§3) Control incubations were performed for each assay with appropriate positive inhibitory controls.
# [10] = system: isolated rabbit Purkinje fibers; experiment: Action potential duration in rabbit cardiac Purkinje fibers
# Method: The in vitro effect of 18-MC on the cardiac action potential was evaluated in isolated rabbit Purkinje fibers (FIG. 13). […] Fibers with resting potentials more negative than −80 mV and normal action potential morphology (APD90≥150 ms) were used in the study. Fibers were stimulated continuously at BCL of 1 second for at least 5 minutes. At the end of this period, baseline control APD rate dependence was measured using stimulus pulse trains consisting of approximately 50 pulses at BCL of 1 and 0.5 seconds. After returning to BCL of 1 second, 18-MC (or dl-sotalol) at the lowest concentration was applied for at least 20 minutes to allow equilibration, and the stimulus trains repeated. […] The average responses from the last five recorded action potentials from each stimulus train were analyzed for each test condition.
# Electrophysiological recordings were performed with four nominal concentrations of 18-MC (0.3, 1, 3, and 10 μM) added sequentially to four preparations at two stimulus intervals (basic cycle lengths of 1 s and 0.5 s). The effects of 18-MC on action potential parameters were compared to time-matched vehicle control sequences.
# [11] = molecular target: CYP2E1 (Homo sapiens, UniProt P05181); settings: recombinant enzyme
# Sequence of CYP2E1 (P05181 whole entry): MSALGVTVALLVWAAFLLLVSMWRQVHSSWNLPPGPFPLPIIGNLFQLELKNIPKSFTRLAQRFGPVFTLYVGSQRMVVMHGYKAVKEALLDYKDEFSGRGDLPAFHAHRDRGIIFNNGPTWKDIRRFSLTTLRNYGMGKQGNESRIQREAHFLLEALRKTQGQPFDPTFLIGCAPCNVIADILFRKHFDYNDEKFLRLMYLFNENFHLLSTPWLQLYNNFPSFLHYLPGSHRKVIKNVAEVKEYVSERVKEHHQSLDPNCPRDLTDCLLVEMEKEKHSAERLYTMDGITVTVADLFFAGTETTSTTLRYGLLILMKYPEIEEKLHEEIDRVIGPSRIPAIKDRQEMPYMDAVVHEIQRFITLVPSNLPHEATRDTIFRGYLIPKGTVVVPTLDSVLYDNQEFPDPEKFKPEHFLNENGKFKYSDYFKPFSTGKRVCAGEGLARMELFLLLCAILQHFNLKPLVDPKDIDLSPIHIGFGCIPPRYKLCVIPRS
# Method: as §3
# [12] = Plasma 18-MC concentration in rats, 5-day dosing self-administration study
# Method: Blood samples were collected from animals immediately after their cocaine self-administration at approximately 2 hours post dose in the first day of dosing (Day 0), and the last day of dosing (Day 4).
# [13] = molecular target: CYP2D6 (Homo sapiens, UniProt P10635); settings: recombinant enzyme
# Sequence of CYP2D6 (P10635 whole entry): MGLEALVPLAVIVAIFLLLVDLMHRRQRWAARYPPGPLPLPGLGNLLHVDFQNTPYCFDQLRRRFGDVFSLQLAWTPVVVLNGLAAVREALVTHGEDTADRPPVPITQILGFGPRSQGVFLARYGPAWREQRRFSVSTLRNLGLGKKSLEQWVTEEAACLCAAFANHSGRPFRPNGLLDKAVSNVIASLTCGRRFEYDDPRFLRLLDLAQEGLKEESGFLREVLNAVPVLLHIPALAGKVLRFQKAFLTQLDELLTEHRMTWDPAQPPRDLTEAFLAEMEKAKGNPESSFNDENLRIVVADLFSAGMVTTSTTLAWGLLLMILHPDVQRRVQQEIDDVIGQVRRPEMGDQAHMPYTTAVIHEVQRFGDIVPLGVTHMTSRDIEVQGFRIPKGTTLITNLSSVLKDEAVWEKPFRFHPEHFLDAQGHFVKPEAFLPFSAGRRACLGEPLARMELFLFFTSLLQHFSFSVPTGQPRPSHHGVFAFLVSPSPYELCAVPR
# Method: as §3
# [14] = Phase 1 first-in-human study, pharmacokinetics in plasma
# Method: Fourteen normal, healthy volunteers were enrolled in the study. Seven volunteers were treated in the first cohort (3 placebo, 4 received a single dose of 20 mg of 18-MC) and seven in the second cohort (2 placebo, 5 received 8 mg as 4 mg doses of 18-MC administered at 0 and plus 10 hours). For Cohort A, volunteers were monitored in a hospital unit for 2 days (36 hours) days, and were followed up for safety at Days 3, 7 and 30. For Cohort B, volunteers were monitored in a hospital unit for 2 days (36 hours), and were followed up for safety at Days 3, 4, 7 and 30.
# This study was designed as a randomized, double-blind, placebo-controlled, single-center Phase 1 first-in-human clinical trial. After screening, volunteers were admitted to the hospital for 36 hours. […] Study article was initiated on Day 1 and volunteers were discharged on Day 2. Cohort A were seen as outpatients on Days 3, 7 and 30. Cohort B were seen as outpatients on Days 3, 4, 7 and 30. 14 subjects were in the study, 5 male and 9 female.
# For Cohort A, pharmacokinetic samples were obtained at baseline and at 0.5, 1.0, 2.0, 6.0, 12.0, 24, 36 hours, and 7 days post dose.
# Samples underwent two analyses: A research assay (LG/MS/TOF) developed by MicroConstants, Inc., was used to collect the raw data. The first analysis was to quantitate 18-MG and the known metabolites M2, M4 and M5 (using standard curves included in the run). The second analysis compared the peak heights of 18-MG and all the metabolites that could be identified in terms of relative peak height (M1 through M10, and P1-P3).
# [15] = Dose Day 0, post dose (~2 h), 600 mg/kg/day
# [16] = cohort B, 4 mg PO at 0 and +10 hours
smiles,measurement,setting,value
"COCCC1CC2CN3CCc4c([nH]c5ccccc45)C(C(=O)OC)(C2)C13.Cl (stereo not drawn) [18-MC HCl, 18-Methoxycoronaridine hydrochloride]",structural chromosome aberrations,[1]; with metabolic activation,positive
same,structural chromosome aberrations,[1]; without metabolic activation,negative
same,stability of dosing solution,[2]; after 3 freeze-thaw (20° C.) cycles,met the required stability criteria
same,"homogeneity, concentration acceptability, solubility and stability of dosing formulation",[2]; after 10 days of refrigerated storage,met the applicable ICH criteria
same,responding for cocaine,[3]; 15 minutes prior to session,significantly decreased
same,responding for water,[3],no effect
same,solubility in dimethyl sulfoxide (DMSO),[4],freely soluble
same,maximum solubility,[4]; 5% dextrose (pH 3.0),40 mg/mL
same,solubility in aqueous solution,[4]; neutral and alkaline pH,poorly soluble
same,mean % tail DNA,"[5]; 90 mg/kg/day, vehicle 1.27+/−0.52",2.60+/−0.7%
same,mouse comet assay result,"[5]; 50, 90, 120 mg/kg/day, 3 days",negative
"COCC[C@H]1CC2CN3CCc4c([nH]c5ccccc45)[C@](C(=O)OC)(C2)[C@H]13 [18-MC, 18-methoxycoronaridine]",% Bound Mean ± SD,[6]; 200 ng/mL,96.8 ± 0.321%
same,% Bound Mean ± SD,[6]; 600 ng/mL,97.6 ± 0.153%
same,% Bound Mean ± SD,"[6]; 5,000 ng/mL",95.2 ± 0.473%
same,Average % Bound Mean ± SD,[6]; average of 3 concentrations,96.5 ± 1.22%
same,% Bound Mean ± SD,[7]; 200 ng/mL,98.4 ± 0.643%
same,% Bound Mean ± SD,[7]; 600 ng/mL,97.7 ± 0.100%
same,% Bound Mean ± SD,"[7]; 5,000 ng/mL",97.2 ± 0.100%
same,Average % Bound Mean ± SD,[7]; average of 3 concentrations,97.8 ± 0.603%
same,protein bound in plasma,[8],95-98% and 92-98%
same,IC50,[9],19 µM
same,APD60,"[10]; 3 μM, 1 second BCL",statistically significant (p<0.05) shortening
same,APD60,"[10]; 10 μM, 0.5 and 1 s BCL",statistically significant (P<0.05) shortening
same,"resting membrane potential, action potential amplitude, Vmax","[10]; any concentration tested, two stimulus intervals",did not induce significant changes
same,IC50,[11],28 µM
same,"Plasma 18-MC concentration, Average",[12]; [15],"11,442 ng/mL"
same,"Plasma 18-MC concentration, individual animals",[12]; [15],"3,450 ng/mL and 12,600 ng/mL and 11,300 ng/mL and 13,900 ng/mL and 14,200 ng/mL and 13,200 ng/mL"
same,"Plasma 18-MC concentration, Average","[12]; Dose Day 4, post dose","7,524 ng/mL"
same,"Plasma 18-MC concentration, individual animals","[12]; Dose Day 4, post dose","9,030 ng/mL and 3,760 ng/mL and 8,040 ng/mL and 10,500 ng/mL and 6,290 ng/mL"
same,"Plasma 18-MC concentration, Average","[12]; Dose Day 4, pre dose","2,998 ng/mL"
same,"Plasma 18-MC concentration, individual animals","[12]; Dose Day 4, pre dose","3,840 ng/mL and 1,680 ng/mL and 3,020 ng/mL and 2,720 ng/mL and 3,730 ng/mL"
same,IC50,[13],> 100 µM
same,elimination half-life,"[14]; 4 mg at 0 and +10 hours (8 mg total), longer sampling interval",about 48 hours
same,Tmax,"[14]; cohort A or B, generally",½
same,"AUCall, Average","[14]; cohort A, 20 mg PO single dose",339 ng·h/mL
same,"AUCall, Max","[14]; cohort A, 20 mg PO single dose",447 ng·h/mL
same,"AUCall, Min","[14]; cohort A, 20 mg PO single dose",241 ng·h/mL
same,"Cmax, Average","[14]; cohort A, 20 mg PO single dose",119 ng/mL
same,"Cmax, Max","[14]; cohort A, 20 mg PO single dose",182 ng/mL
same,"Cmax, Min","[14]; cohort A, 20 mg PO single dose",92 ng/mL
same,"Half-Life, Average","[14]; cohort A, 20 mg PO single dose",17.9 h
same,"Half-Life, Max","[14]; cohort A, 20 mg PO single dose",21.7 h
same,"Half-Life, Min","[14]; cohort A, 20 mg PO single dose",14.2 h
same,"Tmax, Average","[14]; cohort A, 20 mg PO single dose",0.5 h
same,"Tmax, Max","[14]; cohort A, 20 mg PO single dose",0.5 h
same,"Tmax, Min","[14]; cohort A, 20 mg PO single dose",0.5 h
same,"AUCall, Average",[14]; [16],195 ng·h/mL
same,"AUCall, Max",[14]; [16],400 ng·h/mL
same,"AUCall, Min",[14]; [16],124 ng·h/mL
same,"Cmax, Max",[14]; [16],46 ng/mL
same,"Cmax, Min",[14]; [16],20 ng/mL
same,"Half-Life, Average",[14]; [16],16.9 h
same,"Half-Life, Max",[14]; [16],52.2 h
same,"Half-Life, Min",[14]; [16],3.0 h
same,"Tmax, Average",[14]; [16],2.55 h
same,"Tmax, Max",[14]; [16],10.25 h
same,"Tmax, Min",[14]; [16],0.5 h

# Reference: patent US20230201217A1 (priority 2019, published 2023)
